# Legend:
# Type in all cases: in vivo
# Musca domestics = test: Experimental Example 3: filter paper test with sucrose bait, death rate of Musca domestics; settings: 500 ppm active ingredient, 0.7 ml on filter paper, 10 female imagoes, after 24 hours, read-out: death rate of the pest
# Protocol: Preparations of the present compounds (1), (2), (3), (4), (5), (6), (8), (9), (10), (11), (12), (13), (14), (15), (16), (17), (18), (19), (21), (22), (23), (24), (25), (26), (27), (31), (34), (35), (36), (37), (38), (39), (40), (42), (47), (50), (52), (54), (66), (67) and (68) obtained according to Formulation Example 5 were diluted with water so that the active ingredient concentration was 500 ppm to prepare experimental pesticidal solutions.
# (§1) A filter paper having a diameter of 5.5 cm was spread on the bottom of a polyethylene cup having a diameter of 5.5 cm and 0.7 ml of the experimental pesticidal solution was added dropwise onto the filter paper. As a bait 30 mg of sucrose was uniformly placed on the filter paper. Into the polyethylene cup, 10 female Musca domestics imagoes were released and the cup was sealed with a lid. After 24 hours, the number of surviving Musca domestics was examined and the death rate of the pest was calculated.
# Blattalla germanica = test: Experimental Example 4: filter paper test with sucrose bait, death rate of Blattalla germanica; settings: 144 h; 500 ppm active ingredient, 0.7 ml on filter paper; two male imagoes; after 6 days
# Protocol: Preparations of the present compounds (2), (4), (5), (6), (8), (9), (11), (12), (13), (15), (17), (18), (19), (21), (24), (25), (26), (27), (35), (36), (37), (38), (40), (41), (42), (47), (50), (52), (54), (62), (64), (65), (66) and (68) obtained according to Formulation Example 5 were diluted with water so that the active ingredient concentration was 500 ppm to prepare experimental pesticidal solutions.
# as §1, with “two male Blattalla gexmanica images” for “10 female Musca domestics imagoes”, “6 days,” for “24 hours,”, “Blattalla germanica” for “Musca domestics”
# Culex pipiens pallens = test: Experimental Example 5: larvae in treated water, death rate of Culex pipiens pallens; settings: 24 h, active ingredient concentration 3.5 ppm in water, 20 last-instar larvae, after one day, read-out: death rate of the pest
# Protocol: Preparations of the present compounds (1), (2), (4), (5), (6), (8), (9), (11), (12), (13), (14), (15), (16), (17), (18), (19), (21), (22), (23), (24), (25), (26), (27), (31), (33), (34), (35), (36), (37), (38), (39), (40), (42), (43), (47), (48), (50), (52), (53), (54), (62), (64), (65), (66), (67), (68) and (70) obtained according to Formulation Example 5 were diluted with water so that the active ingredient concentration was 500 ppm to prepare experimental pesticidal solutions.
# 0.7 ml of the experimental pesticidal solution was added to 100 mL of ion-exchanged water (active ingredient concentration: 3.5 ppm). Into the solution, 20 last-instar larvae of Culex pipiens pallens were released. After one day, the surviving number was examined and the death rate of the pest was calculated.
structure (smiles),measurement,setting,value
CC(C)c1cc(CC(C#N)(C#N)CCC(F)(F)F)no1 [present compound (40)],pest or weed control at 500 ppm,Musca domestics,≥ 90%
same,pest or weed control at 500 ppm,Blattalla germanica,100%
same,pest or weed control at 3.5 ppm,Culex pipiens pallens,≥ 95%
CC(c1cc(C(C)(C)C)on1)C(C#N)(C#N)CCC(F)(F)F (stereo not drawn) [present compound (42)],pest or weed control at 500 ppm,Musca domestics,≥ 90%
same,pest or weed control at 500 ppm,Blattalla germanica,100%
same,pest or weed control at 3.5 ppm,Culex pipiens pallens,≥ 95%
N#CC(C#N)(CCC(F)(F)F)Cc1cc(C(F)F)on1 [present compound (47)],pest or weed control at 500 ppm,Musca domestics,≥ 90%
same,pest or weed control at 500 ppm,Blattalla germanica,100%
same,pest or weed control at 3.5 ppm,Culex pipiens pallens,≥ 95%
CC(F)c1cc(CC(C#N)(C#N)CCC(F)(F)F)no1 (stereo not drawn) [present compound (50)],pest or weed control at 500 ppm,Musca domestics,≥ 90%
same,pest or weed control at 500 ppm,Blattalla germanica,100%
same,pest or weed control at 3.5 ppm,Culex pipiens pallens,≥ 95%
CC(F)(F)c1cc(CC(C#N)(C#N)CCC(F)(F)F)no1 [present compound (52)],pest or weed control at 500 ppm,Musca domestics,≥ 90%
same,pest or weed control at 500 ppm,Blattalla germanica,100%
same,pest or weed control at 3.5 ppm,Culex pipiens pallens,≥ 95%
CC(C)(F)c1cc(CC(C#N)(C#N)CCC(F)(F)F)no1 [present compound (54)],pest or weed control at 500 ppm,Musca domestics,≥ 90%
same,pest or weed control at 500 ppm,Blattalla germanica,100%
same,pest or weed control at 3.5 ppm,Culex pipiens pallens,≥ 95%
C=CC(c1cc(C(C)(C)O)on1)C(C#N)(C#N)CCC(F)(F)F (stereo not drawn) [present compound (66)],pest or weed control at 500 ppm,Musca domestics,≥ 90%
same,pest or weed control at 500 ppm,Blattalla germanica,100%
same,pest or weed control at 3.5 ppm,Culex pipiens pallens,≥ 95%
COc1cc(CC(C#N)(C#N)CCC(F)(F)F)on1 [present compound (68)],pest or weed control at 500 ppm,Musca domestics,≥ 90%
same,pest or weed control at 500 ppm,Blattalla germanica,100%
same,pest or weed control at 3.5 ppm,Culex pipiens pallens,≥ 95%
